In ChEMBL document CHEMBL1154585, “Lorneamides A and B: two new aromatic amides from a southern Australian marine actinomycete” (2000):

System: Bacillus subtilis
Assay: Antibacterial activity against Bacillus subtilis
Format: functional

## CCCC(O)/C=C/c1cc(C)ccc1/C=C/CC(N)=O (stereo unspecified) [LORNEAMIDE A]
  LD99: 50 µg/mL
